Measured values from PMC10486429, “Investigations Using Albumin Binders to Modify the Tissue Distribution Profile of Radiopharmaceuticals Exemplified with Folate Radioconjugates” (Cancers, 2023).

How the values were obtained:
[1] = biological target: human serum albumin (HSA) in human plasma (Homo sapiens, UniProt P02768); assay: Ultrafiltration albumin-binding assay of 177Lu-RedFols, human plasma
Description: An ultrafiltration method was applied according to a previously published procedure (Supplementary Materials Section S11) that was different from the one reported for the ^177Lu-DOTA-ALBs to prevent non-specific binding to the filter units. Briefly, the albumin-bound fraction was determined at different molar concentration ratios of serum albumin relative to the ^177Lu-labeled RedFols using a blood plasma/PBS dilution series and constant amounts of the respective ^177Lu-labeled folate conjugate (0.3 MBq; 0.006 nmol). The albumin-bound fraction was separated from the free (albumin-unbound) fraction of each sample using Amicon centrifugal filters (cut-off of 10 kDa; Merck Millipore, Carrigtwohill, Ireland). The inserts of the filter devices were inverted and centrifuged to recover the albumin-bound fraction, whereas filter-bound activity was considered as free (albumin-unbound) folate radioconjugate. The activity of the different fractions was measured using a γ-counter (Perkin Elmer, Wallac Wizard 1480, Waltham, MA, USA), and the proportion of albumin-bound radioconjugate was set in relation to the total activity measured. The data were analyzed in analogy to those of ^177Lu-DOTA-ALBs (Section 2.1.3). The relative albumin-binding affinity was assessed by calculating the inverse ratio of the B50 value of each 6R-5-MTHF-based folate radioconjugate to the B50 value of [^177Lu]Lu-6R-RedFol-1 (set as 1.0) and of each 6S-5-MTHF-based folate radioconjugate to the B50 value of [^177Lu]Lu-6S-RedFol-1 (set as 1.0). The results were presented as average ± SD of n = 3 independent experiments. […]
S11. Relative Albumin-Binding Properties of 177Lu-RedFols
Purpose: The affinity of the folate radioconjugates to serum albumin in mouse and human blood plasma was determined and compared.
Methods: The albumin-binding affinity of the 177Lu-RedFols was assessed using mouse plasma (Rockland Immunochemicals, Inc., Pottstown, PA, USA, Lot N: 32321; MSA: ⁓550 µM) and human plasma (Stiftung Blutspende SRK Aargau-Solothurn, Aarau, Switzerland; HSA: ⁓800 µM), respectively. An ultrafiltration method was applied accord-ing to a previously published procedure that was different from the one reported for the 177Lu-DOTA-ALBs to avoid non-specific binding to the filter units.
The folate radioconjugates (50 MBq/nmol, ~300 kBq, 6 pmol in 15 µL) were added to samples of mouse and human blood plasma (150 µL), followed by incubation of the sam-ples at 37 °C for 30 min. The samples were loaded on Amicon centrifugal filters (cut-off of 10 kDa; Merck Millipore, Carrigtwohill, Ireland) followed by centrifugation (14000 rcf, 30 min, 4 °C) to allow the separation of the serum albumin-bound from the free (albumin-unbound) fractions of each sample. The inserts of the filter devices were inverted and centrifuged at 200 rcf for 3 min to recover the albumin-bound fraction. The activity of the albumin-bound fraction as well as the activity in the filtrate and in the filter unit were measured separately in a γ-counter (Perkin Elmer, Wallac Wizard 1480, Waltham, MA, USA). The percentage of radioconjugate bound to mouse and human albumin, respec-

[2] = tested on: KB tumor-bearing athymic nude mice; assay: Biodistribution of 177Lu-RedFols in KB tumor-bearing mice; type: in vivo, mouse
Description: Athymic nude mice (Crl:CD1-Foxn^nu) were kept on a folate-deficient rodent diet (ssniff Spezialdiäten GmbH, Soest, Germany) for at least one week prior to inoculation with the tumor cells. Biodistribution studies were performed approx. two weeks after subcutaneous inoculation with KB tumor cells (5 × 10^6 in 100 μL PBS) (Supplementary Materials Section S12). […] Data were presented as the average ± SD of n = 3−4 mice.
Purpose: Biodistribution studies were performed in KB tumor-bearing athymic nude mice (Crl:CD1-Foxnnu) in order to investigate the tissue distribution profiles of the novel radioconjugates. The aim was to compare the impact of the two different albumin binders (4-(p-iodophenyl)butanoate unit vs. 5-(p-iodophenyl)pentanoate unit), and that of the in-corporation of an AMBA linker adjacent to the albumin binder on the distribution profile of the resulting folate radioconjugates.
Methods: The methods are described in the main article. The mice were sacrificed at […]

Chain of human serum albumin (HSA) in human plasma (P02768 25-609): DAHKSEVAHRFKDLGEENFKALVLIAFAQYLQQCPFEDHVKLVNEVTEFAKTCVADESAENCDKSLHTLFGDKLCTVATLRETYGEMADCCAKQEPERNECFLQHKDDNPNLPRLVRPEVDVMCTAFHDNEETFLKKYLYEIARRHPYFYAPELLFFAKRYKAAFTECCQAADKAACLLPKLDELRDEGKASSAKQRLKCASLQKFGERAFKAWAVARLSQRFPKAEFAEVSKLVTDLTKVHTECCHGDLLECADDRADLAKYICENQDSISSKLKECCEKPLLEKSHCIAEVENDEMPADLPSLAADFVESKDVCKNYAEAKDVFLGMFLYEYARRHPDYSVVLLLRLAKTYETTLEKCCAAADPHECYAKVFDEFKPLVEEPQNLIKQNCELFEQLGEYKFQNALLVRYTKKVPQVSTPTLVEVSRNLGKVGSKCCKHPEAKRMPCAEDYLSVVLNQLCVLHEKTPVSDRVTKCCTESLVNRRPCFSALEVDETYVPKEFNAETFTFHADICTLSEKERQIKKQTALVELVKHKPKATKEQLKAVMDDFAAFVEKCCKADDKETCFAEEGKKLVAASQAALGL

CN1c2c(nc(N)[nH]c2=O)NCC1CNc1ccc(C(=O)NC(CCC(=O)NC(CCCCNC(=O)CN2CCN(CC(=O)[O-])CCN(CC(=O)[O-])CCN(CC(=O)[O-])CC2)C(=O)NC(CCCCNC(=O)c2ccc(CNC(=O)CCCCc3ccc(I)cc3)cc2)C(=O)O)C(=O)O)cc1.[177Lu+3] (stereo not drawn) [[^177Lu]Lu-6S-RedFol-25]
Relative albumin-binding affinity ([1]; human blood plasma, inverse B50 ratio, normalized to the respective (6R or 6S) RedFol-1, set as 1.0): 0.2
Albumin-bound fraction ([1]; undiluted human blood plasma): 91%
Blood, accumulated activity ([2]; 1 h p.i.): 13 ± 2 % IA/g
Bone, accumulated activity ([2]; 1 h p.i.): 1.4 ± 0.2 % IA/g
Intestines, accumulated activity ([2]; 1 h p.i.): 1.3 ± 0.3 % IA/g
KB tumor, accumulated activity ([2]; 1 h p.i.): 17 ± 2 % IA/g
Kidneys, accumulated activity ([2]; 1 h p.i.): 38 ± 5 % IA/g
Liver, accumulated activity ([2]; 1 h p.i.): 2.3 ± 0.1 % IA/g
Lung, accumulated activity ([2]; 1 h p.i.): 5.5 ± 0.8 % IA/g
Muscle, accumulated activity ([2]; 1 h p.i.): 1.2 ± 0.2 % IA/g
Salivary glands, accumulated activity ([2]; 1 h p.i.): 2.2 ± 1.5 % IA/g
Spleen, accumulated activity ([2]; 1 h p.i.): 1.4 ± 0.2 % IA/g
Stomach, accumulated activity ([2]; 1 h p.i.): 1.3 ± 0.2 % IA/g
Tumor-to-blood ratio ([2]; 1 h p.i.): 1.3 ± 0.1
Tumor-to-kidney ratio ([2]; 1 h p.i.): 0.45 ± 0.02
Tumor-to-liver ratio ([2]; 1 h p.i.): 7.4 ± 0.6
Blood, accumulated activity ([2]; 4 h p.i.): 8.4 ± 2.8 % IA/g
Bone, accumulated activity ([2]; 4 h p.i.): 1.1 ± 0.4 % IA/g
Intestines, accumulated activity ([2]; 4 h p.i.): 1.2 ± 0.4 % IA/g
KB tumor, accumulated activity ([2]; 4 h p.i.): 32 ± 8 % IA/g
Kidneys, accumulated activity ([2]; 4 h p.i.): 88 ± 23 % IA/g
Liver, accumulated activity ([2]; 4 h p.i.): 1.9 ± 0.5 % IA/g
Lung, accumulated activity ([2]; 4 h p.i.): 4.1 ± 1.4 % IA/g
Muscle, accumulated activity ([2]; 4 h p.i.): 0.92 ± 0.27 % IA/g
Salivary glands, accumulated activity ([2]; 4 h p.i.): 1.9 ± 1.1 % IA/g
Spleen, accumulated activity ([2]; 4 h p.i.): 1.3 ± 0.3 % IA/g
Stomach, accumulated activity ([2]; 4 h p.i.): 1.0 ± 0.4 % IA/g
Tumor-to-blood ratio ([2]; 4 h p.i.): 4.0 ± 1.2
Tumor-to-kidney ratio ([2]; 4 h p.i.): 0.37 ± 0.05
Tumor-to-liver ratio ([2]; 4 h p.i.): 18 ± 5
Blood, accumulated activity ([2]; 24 h p.i.): 0.15 ± 0.09 % IA/g
Bone, accumulated activity ([2]; 24 h p.i.): 0.14 ± 0.05 % IA/g
Intestines, accumulated activity ([2]; 24 h p.i.): 0.10 ± 0.03 % IA/g
KB tumor, accumulated activity ([2]; 24 h p.i.): 37 ± 4 % IA/g
Kidneys, accumulated activity ([2]; 24 h p.i.): 121 ± 13 % IA/g
Liver, accumulated activity ([2]; 24 h p.i.): 0.56 ± 0.07 % IA/g
Lung, accumulated activity ([2]; 24 h p.i.): 0.27 ± 0.06 % IA/g
Muscle, accumulated activity ([2]; 24 h p.i.): 0.10 ± 0.02 % IA/g
Salivary glands, accumulated activity ([2]; 24 h p.i.): 0.49 ± 0.04 % IA/g
Spleen, accumulated activity ([2]; 24 h p.i.): 0.42 ± 0.05 % IA/g
Stomach, accumulated activity ([2]; 24 h p.i.): 0.13 ± 0.04 % IA/g
Tumor-to-blood ratio ([2]; 24 h p.i.): 316 ± 150
Tumor-to-kidney ratio ([2]; 24 h p.i.): 0.31 ± 0.02
Tumor-to-liver ratio ([2]; 24 h p.i.): 67 ± 16
